How the values were obtained:
[1] = tested on: TAP-expressing 221.A2 target cells; type: cell-based, human
[2] = tested on: TAP-deficient T2 target cells; type: cell-based, human
[3] = tested on: TAP deficient RMA-S targets; type: cell-based, mouse; conditions: ConA-activated CTL, 10 μM overnight
C57BL6 mice = type: in vivo, mouse; conditions: 40 μg immunogen in IFA plus CpG adjuvant; spleen cells restimulated 7 days with peptide epitope; RMA-S targets, FIGS. 11A-11C
RMA-S cells = experiment: Flow cytometry of surface H-2K^b/OVA257 complexes on RMA-S cells with or without furin inhibitor; type: cell-based; conditions: 18 hours, 25D1.16 antibody, FIG. 13
Method: Aliquots of RMA-S cells were cultured without or with the furin inhibitor decRVKR-CMK (60 μM) at 37° C. After one hour of culture, 4 multiple epitope-containing TA (TA3-A, TA3-B, TA3-C, and TA3-D) or OVA257 were each added to separate cultures, which were then incubated for a further 18 hours. The cells were then harvested and the relative amounts of H-2K^b/OVA257 complexes expressed on the surfaces of the cells were assessed by fluorescence flow cytometry using the 25D1.16 antibody (FIG. 13). […] These findings underscore the importance of furin in processing of antigens to generate peptide epitopes that bind to MHC class I molecules and are then recognized by appropriate peptide epitope-specific CTL.

TAP-competent EL-4 cells = experiment: Flow cytometry of surface H-2K^b/OVA257 complexes (25D1.16) with protease inhibitors, EL-4 cells; type: cell-based, mouse; conditions: decRVKR-CMK 60 μM, antigen 10 μM overnight, FIGS. 8A-8C
Method: (§1) The effects of protease inhibitors on antigen processing and presentation were evaluated by analysis of 25D1.16 staining on different antigen-pulsed EL-4 or T2/K^b cells using flow cytometric analysis. In brief, EL-4 or T2/K^b cells were washed twice with serum-free AIM-V medium (Life Technologies, Rockville, Md.), pre-treated with protease inhibitors (10 μM lactacycstin, 100 μM pepstatin or 60 μM decRVKR-CMK) for 30 minutes and then pulsed with equimolar concentrations of different (as indicated) peptides at 37° C. overnight with the continuous presence of the corresponding protease inhibitors. The serum-free AIM-V medium was used in order to exclude the potential involvement of serum proteases during the peptide-pulsing process. After washing the cells twice with FACS buffer (PBS (phosphate buffered saline) supplemented with 2% FBS and 0.2% sodium azide), peptide-loaded APC were stained with 25D1.16 antibody followed by FITC anti-mIgG for flow analysis. Untreated EL-4 and T2/K^b cells were pulsed with peptides and stained as controls.

[4] = tested on: TAP-deficient cells (T2/K^b); experiment: Immunofluorescence and confocal microscopy of H-2K^b/OVA257 complexes, T2/K^b cells; type: cell-based, human
Method: (§2) T2/K^b or L-K^b cells were cultured overnight on poly-lysine treated glass coverslips. The culture medium was discarded, and the cells were gently washed with PBS. The cells were pre-incubated with serum-free AIM-V medium at 37° C. for 30 minutes and then incubated with peptide/TA solutions at the indicated concentrations for 12 hour at 37° C. After peptide loading, the cells were washed and fixed with 2% formaldehyde for 20 minutes at room temperature. For indirect immunofluorescence, fixed cell monolayers were permeabilized with 0.2% Triton X100 in PBS and incubated with PBS containing 5% goat serum to block non-specific protein binding sites. The cells were double-labeled with mouse monoclonal antibody 25D1.16 specific to OVA257/H-2K^b complex and rabbit polyclonal antibody TGN38 (TGN marker) or rabbit anti-calreticulin (ER marker), followed by 1 hour staining with FITC anti-mIgG and TR anti-rIgG as secondary antibodies. After washing, the coverslips were mounted for observation on glass slides using the Prolong Antifade Kit. The stained cells were examined and photographed with a Leica TCS-SL confocal laser-scanning microscope (Bensheim, Germany).
An antibody specific for trans-Golgi network (TGN38) was used to test whether H-2K^b/OVA257 complexes could also be detected in the trans-Golgi network of cells incubated with TA peptides. […] In these cells, antibody TGN38 stained brightly a structure corresponding to the trans-Golgi. […] These observations reinforce the findings that TA peptides need to penetrate cells in order to create MHC class I/peptide complexes. In addition, these complexes are observed in both the ER and trans-Golgi, even in TAP-deficient cells.

[5] = tested on: TAP-competent cells expressing H-2K^b (L-K^b); experiment: Immunofluorescence and confocal microscopy of H-2K^b/OVA257 complexes, TAP-competent cells; type: cell-based, mouse; conditions: 25D1.16 staining
Method: as §2
Utilizing the monoclonal antibody 25D1.16 that specifically reacts with H-2K^b/OVA257 complexes and confocal microscopy, the formation and presence of this CTL epitope in permeabilized TAP-competent and TAP-deficient cells expressing H-2K^b was evaluated. […] These cells were also stained with an antibody specific for calreticulin which is localized within the ER.

[6] = tested on: Murine dendritic cells (DC); experiment: Persistence in dendritic cells: IFN-γ ELISA of OT-1 CTL cultured with pulsed DC; type: cell-based, mouse; conditions: DC pulsed 10 μM 2 hours, washed, further 48 hours, CTL:DC 10:1 for 24 hours, FIG. 14
Method: Murine dendritic cells (DC) were prepared by culturing C57BL6 mouse (H-2^b) bone marrow […] in the presence of granulocyte macrophage colony stimulating factor (GM-CSF) and interleukin-4 (IL-4) by a method essentially the same as that described by Son et al. [(2002) J. Immunol. Meth. 262:145-157] except that non-adherent cells are removed from the cultures and discarded on day 2 of culture and no density gradient centrifugation step was used. Cells not adhering to the plastic tissue culture vessel at day 6 of culture were harvested and used as DC.
DC were pulsed with either the TA HIVtat-OVA257 (see Table 2) or the peptide epitope OVA257, each at a concentration of 10 μM, for 2 hours at 37° C. The cells were then washed free of the TA or peptide epitope and incubated for a further 48 hours. They were then cultured with cells of the OT-1 CTL clone (specific for H-2K^b/OVA257) at a CTL to DC ratio of 10:1 for 24 hours. Supernatants were then removed from the cultures and the relative amounts of IFN-γ in various dilutions of each supernatant were measured by ELISA (FIG. 14). […] These findings indicate that a peptide epitope persists in DC for a longer period of time when taken up by DC in the form of a TA than when taken up by DC in the form of the peptide epitope per se.

[7] = tested on: TAP-deficient T2/K^b cells; experiment: Flow cytometry of surface H-2K^b/OVA257 complexes (25D1.16) with protease inhibitors, T2/K^b cells; type: cell-based, human; conditions: decRVKR-CMK 60 μM, antigen 10 μM overnight, FIGS. 8D-8F
Method: as §1
The data described above indicate that TA can be processed in various cellular compartments to produce small peptide epitopes that subsequently associate with MHC class I molecules and the resulting peptide-MHC class I complexes are then transported to the cell surface. Antigen processing could take place: (1) in the cytoplasm, via proteasomal degradation followed by TAP transport; (2) within the ER, where peptide trimming via an aminopeptidase could occur; (3) in the trans-Golgi, where processing of antigens through proteases such as furin can occur; and/or (4) in early endocytic compartments, where peptides that could either bind to recycling MHC class I molecules or leak into other compartments of the MHC class I pathway can be generated. Utilizing antibody 25D1.16, we studied the effects of various inhibitors of antigen processing in the formation of H-2K^b/OVA257 surface complexes by peptides OVA257-HIVtat and HIVtat-OVA257.

“RQIKIWFPNRRMKWKKAEIDLIMDQVPFSVLRTED [AntpHD-gp100209]” was tested, and the “sensitization of targets for lysis by gp100209-specific CTL clone” value [1] was “efficiently sensitized”, the “effect of brefeldin-A (BFA) on sensitization of T2 cells” value [2] was “effective in blocking” and the “sensitization of targets for lysis by gp100209-specific CTL clone” value [2] was “efficiently sensitized”.

In the case of “IKAVYNFATCGRVKRSIYRYYGLRVKRSIINFEKLAAARKKRRQRRR [TA3-A]”, the “sensitization of targets for killing by OVA257-specific CTL” value ([3]; FIG. 9 left panel) is reported as “could effectively kill targets sensitized”, the “sensitization of targets for killing by 2C-specific CTL” value ([3]; FIG. 9 middle panel) is reported as “could effectively kill targets sensitized” and the “induction of CTL responses by in vivo vaccination” value (C57BL6 mice) is reported as “at least as effective as the peptide mixture”.

SIINFEKL [OVA257, reference compound] was tested, and the “cell-surface H-2K^b/OVA257 complexes after exposure of cells” value (RMA-S cells) was “detectable levels”, the “effect of furin inhibitor decRVKR-CMK on expression of surface H-2K^b/OVA257 complexes (decrease)” value (TAP-competent EL-4 cells) was “no effect was observed” and the “location of H-2K^b/OVA257 complexes on the cell-surface” value ([4]; 25D1.16 staining) was “most of the H-2K^b/OVA257 complexes were on the cell-surface”. The “localization of H-2K^b/OVA257 complexes to the trans-Golgi” value ([4]; 25D1.16 superimposed with TGN38 staining) was “no localization to the trans-Golgi”, the “presence of H-2K^b/OVA257 complexes in permeabilized cells” value [5] was “abundant” and the “IFN-γ produced by OT-1 CTL cultured with pulsed DC” value [6] was “insignificant levels of IFN-γ”. For the same sequence, the “effect of furin inhibitor decRVKR-CMK on expression of surface H-2K^b/OVA257 complexes (decrease)” value [7] was “no effect was observed”.

— US8822182B2, “Chimeric antigen-specific T cell-activating polypeptides” (Mayo Foundation for Medical Education and Research, priority 2001, dated 2014)
